The record followed here is patent US20240270741A1 (Cogent Biosciences, Inc., priority 2023, published 2024).

FGFR2, sequence (P21802 399-821 limits assumed): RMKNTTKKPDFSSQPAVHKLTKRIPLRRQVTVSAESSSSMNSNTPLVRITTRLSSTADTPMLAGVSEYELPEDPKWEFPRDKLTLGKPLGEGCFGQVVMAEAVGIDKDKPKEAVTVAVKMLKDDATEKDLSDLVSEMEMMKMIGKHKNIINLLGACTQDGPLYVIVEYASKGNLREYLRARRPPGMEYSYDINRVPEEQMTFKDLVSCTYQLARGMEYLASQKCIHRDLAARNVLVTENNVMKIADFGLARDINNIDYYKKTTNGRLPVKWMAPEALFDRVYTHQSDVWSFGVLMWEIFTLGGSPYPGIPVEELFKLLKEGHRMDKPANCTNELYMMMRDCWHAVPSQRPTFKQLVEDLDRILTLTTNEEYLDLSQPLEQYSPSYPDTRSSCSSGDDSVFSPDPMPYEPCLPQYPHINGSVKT

The first assay addresses FGFR2 (Homo sapiens, UniProt P21802). Nature of the assay: FGFR wild type enzyme assay (HTRF KinEASE-TK), FGFR2. As to conditions: Enz FGFR2 (nM), FGFR2 wild type enzyme.
In the case of `Cc1c(-c2cc(Sc3ncccc3F)c3c(C#N)cnn3c2)cnn1C1CCN(C(=O)[C@H](C)O)CC1` [Example 194, (S)-4-((3-fluoropyridin-2-yl)thio)-6-(1-(1-(2-hydroxypropanoyl)piperidin-4-yl)-5-methyl-1H-pyrazol-4-yl)pyrazolo[1,5-a]pyridine-3-carbonitirle], it took 2 nM to reach half-maximal inhibition (IC50). For `CO[C@H](C)CN1CCC(n2ncc(-c3cc(Sc4ncccc4F)c4c(C#N)cnn4c3)c2C)CC1` [Example 148, (R)-4-((3-fluoropyridin-2-yl)thio)-6-(1-(1-(2-methoxypropyl)piperidin-4-yl)-5-methyl-1H-pyrazol-4-yl)pyrazolo[1,5-a]pyridine-3-carbonitrile], it took 2 nM to reach half-maximal inhibition (IC50).

Still in this assay, the particulars now being: Enz FGFR2 (nM), FGFR2 wild type enzyme assay.
For `C[C@H](O)CCn1cc(-c2cc(Sc3ccccc3C#N)c3c(C#N)cnn3c2)cn1` [Example 570], the IC50 was 1 nM.

In turn, `N#Cc1cc(F)ccc1Sc1cc(-c2ccc(N3CCOC(CO)C3)nc2)cn2ncc(C#N)c12` (centres unmarked) [Example 646, 4-((2-cyano-4-fluorophenyl)thio)-6-(6-(2-(hydroxymethyl)morpholi-no)pyridin-3-yl)pyrazolo[1,5-a]pyridine-3-carbonitrile] showed an IC50 of 1 nM. For `N#Cc1cc(F)ccc1Sc1cc(-c2ccc(N3CC[C@H](O)C3)nc2)cn2ncc(C#N)c12` [Example 626, (S)-4-((2-cyano-4-fluorophenyl)thio)-6-(6-(3-hydroxypyrrolidin-1-yl)pyridin-3-yl)pyrazolo[1,5-a]pyridine-3-carbonitrile], the IC50 came to 1 nM. Molecule `Cc1noc(N2CCC[C@H](n3ncc(-c4cc(Sc5ccc(F)cc5C#N)c5c(C#N)cnn5c4)c3C)C2)n1` [Example 455, 4-(2-cyano-4-fluoro-phenyl)sulfanyl-6-[5-methyl-1-[(3S)-1-(3-methyl-1,2,4-oxadiazol-5-yl)-3-piperidyl]pyrazol-4-yl]pyrazolo[1,5-a]pyridine-3-carbonitrile] came in with an IC50 of 2 nM. Still for that read-out and setting: the value for `Cc1c(-c2cc(Sc3ccc(F)cc3C#N)c3c(C#N)cnn3c2)cnn1CC(C)(C)O` [Example 486, 4-((2-cyano-4-fluorophenyl)thio)-6-(1-(2-hydroxy-2-methylpropyl)-5-methyl-1H-pyrazol-4-yl)pyrazolo[1,5-a]pyridine-3-carbonitrile] was 9 nM. As for `CC1(C)C[C@H](n2cc(-c3cc(Sc4ccccc4C#N)c4c(C#N)cnn4c3)cn2)CCN1` [Example 620, (R)-4-((2-cyanophenyl)thio)-6-(1-(2,2-dimethylpiperidin-4-yl)-1H-pyrazol-4-yl)pyrazolo[1,5-a]pyridine-3-carbonitrile], the IC50 came out at 0.3 nM. Turning to `Cc1c(-c2cc(Sc3ccc(F)cc3C#N)c3c(C#N)cnn3c2)cnn1[C@@H]1C[C@H]2CC[C@@H](C1)N2C(=O)CO` [Example 372, 4-((2-cyano-4-fluorophenyl)thio)-6-(1-((1R,3s,5S)-8-(2-hydroxyacetyl)-8-azabicyclo[3.2.1]octan-3-yl)-5-methyl-1H-pyrazol-4-yl)pyrazolo[1,5-a]pyridine-3-carbonitrile], the IC50 worked out at 1 nM.

For `CC(C)(CO)N1CC[C@H](n2cc(-c3cc(Sc4ncccc4F)c4c(C#N)cnn4c3)cn2)C1` [Example 510, (S)-4-((3-fluoropyridin-2-yl)thio)-6-(1-(1-(1-hydroxy-2-methylpropan-2-yl)pyrrolidin-3-yl)-1H-pyrazol-4-yl)pyrazolo[1,5-a]pyridine-3-carbonitrile], the midpoint of inhibition, the IC50, lay at 1 nM. With `CC(=O)N[C@H]1CC[C@@H](n2ncc(-c3cc(Sc4nc(C)c(F)cc4F)c4c(C#N)cnn4c3)c2C)CC1` [Example 488, N-((1s,4s)-4-(4-(3-cyano-4-((3,5-difluoro-6-methylpyridin-2-yl)thio)pyrazolo[1,5-a]pyridin-6-yl)-5-methyl-1H-pyrazol-1-yl)cyclohexyl)acetamide], inhibition was half-maximal at 1 nM (IC50).
